pIC50: −log10 of the molar value. Where a name gives a salt, the structure may show the parent alone.

Sequence of 5-HT3a receptor (P46098 24-478): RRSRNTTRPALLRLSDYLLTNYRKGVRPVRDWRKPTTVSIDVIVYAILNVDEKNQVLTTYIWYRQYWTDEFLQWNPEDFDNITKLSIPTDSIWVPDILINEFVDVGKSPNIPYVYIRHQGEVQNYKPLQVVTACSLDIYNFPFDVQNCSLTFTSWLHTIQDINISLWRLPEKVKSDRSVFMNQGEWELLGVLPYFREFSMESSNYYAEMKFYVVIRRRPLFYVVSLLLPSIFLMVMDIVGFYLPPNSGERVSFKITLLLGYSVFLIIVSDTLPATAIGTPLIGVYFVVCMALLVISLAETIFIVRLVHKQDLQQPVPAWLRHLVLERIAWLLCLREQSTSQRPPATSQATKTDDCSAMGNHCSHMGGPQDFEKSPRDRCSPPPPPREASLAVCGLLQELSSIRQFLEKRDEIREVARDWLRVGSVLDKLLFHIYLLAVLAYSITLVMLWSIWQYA

For the assay, the target named is 5-HT3a receptor (Homo sapiens (Human), UniProt P46098). Kind of assay: Inhibition of Ca flux activity of 5-HT3 in vitro assay. The following applies: approximate IC50; calcium flux, 5-HT3a expressed in HEK-293T cells, 5HT 216 nM; read-out: IC50. Type of assay: cell-based. The protocol:
The 5-HT3 antagonist activity of the compounds of the invention was determined by measuring the ability of the compounds to inhibit the calcium flux activity of […] receptor expressed in HEK-293T cells. HEK-293T cells were transfected with the 5-HT3a expression construct using Xtreme Gene 9 (Roche) in 150 mm tissue culture treated plates and incubated for 24 hours at 37° C. Cells were then split and plated at a density of 60K cells/well in poly-lysine coated, black 96-well plates with clear bottoms (BD BioSciences) and incubated overnight at 37° C. Growth media was removed and cells loaded with 200 uL calcium indicator dye in HBSS containing 20 mM HEPES (Calcium 5 Assay kit, Molecular Devices) and incubated at 37° C. for 1 hour. While cells were incubating, the 10× antagonist and agonist/antagonist addition plates were made. For 10× antagonist plate: half log serial dilutions (final concentrations range from 10^−7 through 10^−10 with the bottom well a negative, no ligand control) were made from test compounds in DMSO at a 1000× concentration and then diluted to 10× in HBSS/20 mM HEPES. For addition plate: 5HT was diluted to 100× in HBSS/20 mM HEPES (final concentration in the assay—216 nM) and 15 uL was added to each well of the addition plate, 15 uL of 10× compound was also added to the addition plate, and finally 120 uL of HBSS/20 mM HEPES (for a total of 150 uL). Cells were then removed from the incubator and equilibrated to room temperature for 10 minutes, then 22.5 uL of 10× test compounds were added in triplicate to the plates and incubated at room temperature for 10 minutes (Tropisetron was used as a positive control in every assay). Test plate and addition plate were loaded into the FlexStation III (Molecular Devices), and using the fluidics, 22.5 uL compound additions were made (at t=˜17 seconds), and fluorescence was measured for 90 seconds, reading every 2.2 seconds. Data sets were analyzed as max minus min using Software Max Pro (Molecular Devices). IC50 curves were generated using non-linear regression in GraphPad Prism.
Background: A change in cytosolic calcium serves as a functional read-out for many receptors and channels.
Usually pIC50 stands for the negative decadic logarithm of the IC50, by convention in mol/L. For the molecule `CN1[C@@H]2COC[C@H]1C[C@@H](NC(=O)c1cn(-c3ccccn3)c3ccccc13)C2` [Compound 3, N-((1R,5S,7S)-9-methyl-3-oxa-9-azabicyclo[3.3.1]nonan-7-yl)-1-(pyridin-2-yl)-1H-indole-3-carboxamide, 2,2,2-trifluoroacetate], the pIC50 was 9.02. On to `CN1[C@@H]2COC[C@H]1C[C@@H](NC(=O)c1cn(-c3cccnc3)c3ncc(F)cc13)C2` [Compound 13, 5-fluoro-N-((1R,5S,7S)-9-methyl-3-oxa-9-azabicyclo [3.3.1]nonan-7-yl)-1-(pyridin-3-yl)-1H-pyrrolo[2,3-b]pyridine-3-carboxamide, 2,2,2-trifluoroacetic acid salt], for which the pIC50 is 9.14. Next, `Cn1cc(-n2cc(C(=O)N[C@H]3C[C@H]4COC[C@@H](C3)N4)c3ccccc32)cn1` [Compound 28, N-((1R,5S,7S)-3-oxa-9-azabicyclo[3.3.1]nonan-7-yl)-1-(1-methyl-1H-pyrazol-4-yl)-1H-indole-3-carboxamide]: 8.69; `CN1[C@@H]2COC[C@H]1C[C@@H](NC(=O)c1cn(-c3cnn(C(F)F)c3)c3ccccc13)C2` [Compound 25, 1-(1-(difluoromethyl)-1H-pyrazol-4-yl)-N-((1R,5S,7S)-9-methyl-3-oxa-9-azabicyclo [3.3.1]nonan-7-yl)-1H-indole-3-carboxamide]: 8.86; `CCN1[C@@H]2COC[C@H]1C[C@@H](NC(=O)c1cn(-c3cnn(C)c3)c3ccccc13)C2` [Compound 31, N-((1R,5S,7S)-9-ethyl-3-oxa-9-azabicyclo[3.3.1]nonan-7-yl)-1-(1-methyl-1H-pyrazol-4-yl)-1H-indole-3-carboxamide]: < 6.00. As for `CN1[C@@H]2COC[C@H]1CC(NC(=O)c1cn(-c3ccncc3)c3ccccc13)C2` (stereo partly drawn) [Compound 4, N-((1R,5S,7S)-9-methyl-3-oxa-9-azabicyclo[3.3.1]nonan-7-yl)-1-(pyridin-4-yl)-1H-indole-3-carboxamide, 2,2,2-trifluoroacetate], the figure is 9.16; as for `CN1[C@@H]2COC[C@H]1C[C@@H](OC(=O)c1cn(-c3cnn(CCF)c3)c3ccccc13)C2` [Compound 18, (1R,5S,7S)-9-methyl-3-oxa-9-azabicyclo[3.3.1]nonan-7-yl 1-(1-(2-fluoroethyl)-1H-pyrazol-4-yl)-1H-indole-3-carboxylate, 2,2,2-trifluoroacetic acid salt], 8.70. Regarding `N#Cc1cc(-n2cc(C(=O)O[C@H]3C[C@H]4COC[C@@H](C3)N4)c3ccccc32)ccn1` [Compound 19, (1R,5S,7S)-3-oxa-9-azabicyclo[3.3.1]nonan-7-yl 1-(2-cyanopyridin-4-yl)-1H-indole-3-carboxylate, 2,2,2-trifluoroacetic acid salt], the pIC50 was 8.43. Next, `O=C(N[C@H]1C[C@H]2COC[C@@H](C1)N2)c1cn(-c2cn[nH]c2)c2ccccc12` [Compound 30, N-((1R,5S,7S)-3-oxa-9-azabicyclo[3.3.1]nonan-7-yl)-1-(1H-pyrazol-4-yl)-1H-indole-3-carboxamide]: 9.13; `CN1[C@@H]2COC[C@H]1C[C@@H](NC(=O)c1cn(-c3ccnn3C)c3ccccc13)C2` [Compound 23, 1-(1-methyl-1H-pyrazol-5-yl)-N-((1R,5S,7S)-9-methyl-3-oxa-9-azabicyclo[3.3.1]nonan-7-yl)-1H-indole-3-carboxamide, 2,2,2-trifluoroacetic acid salt]: 9.00; `CN1[C@@H]2COC[C@H]1C[C@@H](NC(=O)c1cn(-c3ccccn3)c3ncccc13)C2` [Compound 10, N-(1R,5S,7S)-9-methyl-3-oxa-9-azabicyclo[3.3.1]nonan-7-yl)-1-(pyridin-2-yl)-1H-pyrrolo[2,3-b]pyridine-3-carboxamide, 2,2,2-trifluoroacetic acid salt]: 9.19.

As to `CN1[C@@H]2COC[C@H]1C[C@@H](NC(=O)c1nn(-c3ccccn3)c3ccccc13)C2` [Compound 14, N-((1R,5S,7S)-9-methyl-3-oxa-9-azabicyclo[3.3.1]nonan-7-yl)-1-(pyridin-2-yl)-1H-indazole-3-carboxamide, 2,2,2-trifluoroacetic acid salt], the pIC50 was 8.87. Consider `CN1[C@@H]2COC[C@H]1C[C@@H](NC(=O)c1cn(-c3ccccn3)c3ncc(F)cc13)C2` [Compound 12, 5-fluoro-N-((1R,5S,7S)-9-methyl-3-oxa-9-azabicyclo [3.3.1]nonan-7-yl)-1-(pyridin-2-yl)-1H-pyrrolo[2,3-b]pyridine-3-carboxamide, 2,2,2-trifluoroacetic acid salt], for which the pIC50 was 9.05. Regarding `Cn1ccc(-n2cc(C(=O)O[C@H]3C[C@H]4COC[C@@H](C3)N4)c3ccccc32)n1` [Compound 16, (1R,5S,7S)-3-oxa-9-azabicyclo[3.3.1]nonan-7-yl 1-(1-methyl-1H-pyrazol-3-yl)-1H-indole-3-carboxylate, 2,2,2-trifluoroacetic acid salt], the negative logarithm of the IC50 (pIC50) is 8.60. For the molecule `CN1[C@@H]2COC[C@H]1C[C@@H](NC(=O)c1cn(-c3ccn(C)n3)c3ccccc13)C2` [Compound 17, 1-(1-methyl-1H-pyrazol-3-yl)-N-((1R,5S,7S)-9-methyl-3-oxa-9-azabicyclo [3.3.1]nonan-7-yl)-1H-indole-3-carboxamide, 2,2,2-trifluoroacetic acid salt], the pIC50 is 9.12.

On to `CN1[C@@H]2COC[C@H]1C[C@@H](NC(=O)c1cn(-c3ccccn3)c3ccccc13)C2` [Compound 8, N-((1R,5S,7S)-9-methyl-d3-3-oxa-9-azabicyclo[3.3.1]nonan-7-yl)-1-(pyridin-2-yl)-1H-indole-3-carboxamide, 2,2,2-trifluoroacetate], for which the pIC50 was 9.09. As for `O=C(O[C@H]1C[C@H]2COC[C@@H](C1)N2)c1cn(-c2cccnc2)c2ccccc12` [Compound 5, (1R,5S,7S)-3-oxa-9-azabicyclo [3.3.1]nonan-7-yl 1-(pyridin-3-yl)-1H-indole-3-carboxylate, 2,2,2-trifluoroacetate], the figure is 9.21. As for `CN1[C@@H]2COC[C@H]1C[C@@H](NC(=O)c1cn(-c3cccnc3)c3ncccc13)C2` [Compound 11, N-((1R,5S,7S)-9-methyl-3-oxa-9-azabicyclo[3.3.l]nonan-7-yl)-1-(pyridin-3-yl)-1H-pyrrolo[2,3-b]pyridine-3-carboxamide, 2,2,2-trifluoroacetic acid salt], the figure is 9.22; as for `CN1[C@@H]2COC[C@H]1C[C@@H](NC(=O)c1cn(-c3cccnc3)c3ccccc13)C2` [Compound 2, N-((1R,5S,7S)-9-methyl-3-oxa-9-azabicyclo[3.3.1]nonan-7-yl)-1-(pyridin-3-yl)-1H-indole-3-carboxamide, 2,2,2-trifluoroacetate], 9.29. Next, `Cc1ncccc1-n1cc(C(=O)N[C@H]2C[C@H]3COC[C@@H](C2)N3C)c2ccccc21` [Compound 20, N-((1R,5S,7S)-9-methyl-3-oxa-9-azabicyclo[3.3.1]nonan-7-yl)-1-(2-methylpyridin-3-yl)-1H-indole-3-carboxamide, 2,2,2-trifluoroacetic acid salt]: 8.82; `Cn1cc(-n2cc(C(=O)O[C@H]3C[C@H]4COC[C@@H](C3)N4)c3ccccc32)cn1` [Compound 9, (1R,5S,7S)-3-oxa-9-azabicyclo [3.3.1]nonan-7-yl 1-(1-methyl-1H-pyrazol-4-yl)-1H-indol-3-carboxylate, 2,2,2-trifluoroacetic acid salt]: 9.17; `CN1[C@@H]2COC[C@H]1C[C@@H](OC(=O)c1cn(-c3ccccn3)c3ccccc13)C2` [Compound 7, (1R,5S,7S)-9-methyl-d3-3-oxa-9-azabicyclo[3.3.1]nonan-7-yl 1-(pyridin-2-yl)-1H-indole-3-carboxylate, 2,2,2-trifluoroacetate]: 8.54. For `CN1[C@@H]2COC[C@H]1CC(NC(=O)c1cn(-c3cccnc3)c3ccccc13)C2` (stereo partly drawn) [Compound 6, N-((1R,5S,7S)-9-methyl-d3-3-oxa-9-azabicyclo[3.3.1]nonan-7-yl)-1-(pyridin-3-yl)-1H-indole-3-carboxamide, 2,2,2-trifluoroacetate], the pIC50 was 8.96. On to `Cc1ccncc1-n1cc(C(=O)N[C@H]2C[C@H]3COC[C@@H](C2)N3C)c2ccccc21` [Compound 21, N-((1R,5S,7S)-9-methyl-3-oxa-9-azabicyclo[3.3.1]nonan-7-yl)-1-(4-methylpyridin-3-yl)-1H-indole-3-carboxamide, 2,2,2-trifluoroacetic acid salt], for which the pIC50 is 8.96.

Values taken from patent US9346829B2, “5-HT3 receptor antagonists” (Takeda Phamaceutical Company Limited, priority 2012, dated 2016).
